The assay has as its target T1, ATP-sensitive inward rectifier potassium channel 11 (Homo sapiens, UniProt Q14654).
T1 sequence (Q14654 whole entry): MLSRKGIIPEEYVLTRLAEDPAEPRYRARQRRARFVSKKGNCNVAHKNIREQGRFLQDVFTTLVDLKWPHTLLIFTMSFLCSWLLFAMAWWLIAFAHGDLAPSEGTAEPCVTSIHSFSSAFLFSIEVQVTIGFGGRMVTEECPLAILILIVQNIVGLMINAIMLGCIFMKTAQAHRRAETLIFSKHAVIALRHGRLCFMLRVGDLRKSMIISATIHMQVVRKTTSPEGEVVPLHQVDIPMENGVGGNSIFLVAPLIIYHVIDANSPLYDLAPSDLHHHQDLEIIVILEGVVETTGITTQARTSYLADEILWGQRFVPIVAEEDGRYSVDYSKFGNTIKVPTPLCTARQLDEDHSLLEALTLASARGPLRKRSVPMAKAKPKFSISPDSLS
In words: Channel opening activity at human bladder Kir6.2 channel containing SUR2B expressed in L cells by FLIPR assay.

SMILES strings stand for the structures.

As for `Cc1ccc(N/C(=N\C#N)NC(NC(=O)c2ccc(Cl)cc2)C(C)(Cl)Cl)cn1` (stereo unspecified), the concentration for a half-maximal effect (EC50) came out at 2240 nM.

On to `CC(Cl)(Cl)C(NC(=O)c1cccc(F)c1)N/C(=N/C#N)Nc1ccc(C(F)(F)F)nc1` (stereo unspecified), for which the EC50 was determined as 2290 nM.

Molecule `CC(Cl)(Cl)C(NC(=O)c1ccc(OC(F)(F)F)cc1)N/C(=N/C#N)Nc1ccc(Cl)nc1` (stereo unspecified) returned an EC50 of 5370 nM.

In turn, `COc1ccc(N/C(=N\C#N)NC(NC(=O)c2ccc(Cl)cc2)C(C)(Cl)Cl)cn1` (stereo unspecified) yielded an EC50 of 10500 nM.

Turning to `CC(Cl)(Cl)C(NC(=O)c1cccc(Cl)c1)N/C(=N/C#N)Nc1ccc(Cl)nc1` (stereo unspecified), the EC50 is 1660 nM.

With `CC(Cl)(Cl)C(NC(=O)c1cccs1)N/C(=N/C#N)Nc1cncc(Br)c1` (stereo unspecified), the EC50 was found to be 1290 nM.

`CC(Cl)(Cl)C(NC(=O)c1cccs1)N/C(=N/C#N)Nc1ccc(F)nc1` (stereo unspecified) registered a concentration giving a half-maximal response (EC50) of 4570 nM. This EC50 is about 3.5-fold higher than that of the molecule before.

Molecule `CC(Cl)(Cl)C(NC(=O)c1cc(Cl)cc(Cl)c1)N/C(=N/C#N)Nc1ccc(F)nc1` (stereo unspecified) came in with an EC50 of 2040 nM.

As for `CC(Cl)(Cl)[C@H](NC(=O)c1ccc(Cl)cc1)N/C(=N/C#N)Nc1ccc(Cl)nc1`, the response was half-maximal at 2140 nM (EC50).

As for `CC(Cl)(Cl)C(NC(=O)c1cc(F)cc(F)c1)N/C(=N/C#N)Nc1ccc(Cl)nc1` (stereo unspecified), the EC50 came to 1100 nM.

On to `CC(Cl)(Cl)C(NC(=O)c1ccc(Br)cc1)N/C(=N/C#N)Nc1ccc(C(F)(F)F)nc1` (stereo unspecified), for which the half-maximal effective concentration (EC50) is > 100000 nM.

With `Cc1ccc(C(=O)NC(N/C(=N/C#N)Nc2ccc(Cl)nc2)C(C)(Cl)Cl)cc1` (stereo unspecified), the EC50 was found to be 912 nM.

`CC(Cl)(Cl)C(NC(=O)c1ccc(Cl)cc1)N/C(=N/C#N)Nc1cncc(Br)c1` (stereo unspecified) had an EC50 of 646 nM. This EC50 and that of the molecule before are within 1.5-fold of each other.

In turn, `CC(Cl)(Cl)C(NC(=O)c1cc(F)cc(F)c1)N/C(=N/C#N)Nc1ccc(C(F)(F)F)nc1` (stereo unspecified) returned a concentration giving a half-maximal response (EC50) of 1180 nM.

Molecule `CC(Cl)(Cl)C(NC(=O)c1cccc(Cl)c1)N/C(=N/C#N)Nc1cncc(Br)c1` (stereo unspecified) registered a concentration giving a half-maximal response (EC50) of 776 nM.

Take `CC(Cl)(Cl)C(NC(=O)c1ccc(Br)cc1)N/C(=N/C#N)Nc1ccc(Cl)nc1` (stereo unspecified): the 50% effective concentration (EC50) turned out to be 537 nM. This EC50 and that of the molecule before are within 1.5-fold of each other.

Take `Cc1nc(C(F)(F)F)ccc1N/C(=N\C#N)NC(NC(=O)c1ccc(Cl)cc1)C(C)(Cl)Cl` (stereo unspecified): the 50% effective concentration (EC50) is 9550 nM.

`Cc1ccc(C(=O)NC(N/C(=N/C#N)Nc2ccc(C(F)(F)F)nc2)C(C)(Cl)Cl)cc1` (stereo unspecified): the EC50 worked out at 3800 nM. This EC50 lies about 2.5-fold lower than the previous one.

Regarding `CC(Cl)(Cl)C(NC(=O)c1ccc(Cl)cc1)N/C(=N/C#N)Nc1ccc(Cl)nc1` (stereo unspecified), the EC50 came to 457 nM.

For `Cc1cccc(C(=O)NC(N/C(=N/C#N)Nc2ccc(Cl)nc2)C(C)(Cl)Cl)c1` (stereo unspecified), it took 1700 nM to reach a half-maximal effect (EC50).

In turn, `COc1cnccc1C(=O)NC(N/C(=N/C#N)Nc1ccc(Cl)nc1)C(C)(Cl)Cl` (stereo unspecified) registered a half-maximal effective concentration (EC50) of 6610 nM.

With `CC(Cl)(Cl)[C@@H](NC(=O)c1ccc(Cl)cc1)N/C(=N/C#N)Nc1cccnc1`, the EC50 was determined as 339 nM.

Molecule `Cc1cccc(C(=O)NC(N/C(=N/C#N)Nc2ccc(C(F)(F)F)nc2)C(C)(Cl)Cl)c1` (stereo unspecified) yielded a half-maximal effective concentration (EC50) of 2570 nM.

In turn, `CC(Cl)(Cl)C(NC(=O)c1cc(Cl)cc(Cl)c1)N/C(=N/C#N)Nc1ccc(Cl)nc1` (stereo unspecified) had a 50% effective concentration (EC50) of 813 nM.

`CC(Cl)(Cl)C(NC(=O)c1ccc(Cl)cc1)N/C(=N/C#N)Nc1ccc(C(F)(F)F)nc1` (stereo unspecified) came in with a concentration giving a half-maximal response (EC50) of 1620 nM.

With `CC(Cl)(Cl)C(NC(=O)c1cccc(Cl)c1)N/C(=N/C#N)Nc1ccc(F)nc1` (stereo unspecified), it took 2290 nM to reach a half-maximal effect (EC50).

In the case of `CC(Cl)(Cl)C(NC(=O)c1ccc(OC(F)(F)F)cc1)N/C(=N/C#N)Nc1cncc(Br)c1` (stereo unspecified), the concentration giving a half-maximal response (EC50) was > 100000 nM.

Consider `CC(Cl)(Cl)C(NC(=O)c1cc(F)cc(F)c1)N/C(=N/C#N)Nc1cncc(Br)c1` (stereo unspecified), for which the half-maximal effective concentration (EC50) was 1100 nM.

On to `COc1cc(OC)cc(C(=O)NC(N/C(=N/C#N)Nc2ccc(Cl)nc2)C(C)(Cl)Cl)c1` (stereo unspecified), for which the EC50 was determined as 8910 nM.

In turn, `CC(Cl)(Cl)C(NC(=O)c1ccc(Cl)cc1)N/C(=N/C#N)Nc1ccccc1F` (stereo unspecified) displayed a 50% effective concentration (EC50) of 12000 nM.

In turn, `Cc1cccc(C(=O)NC(N/C(=N/C#N)Nc2cncc(Br)c2)C(C)(Cl)Cl)c1` (stereo unspecified) displayed an EC50 of 1660 nM.

`CC(Cl)(Cl)C(NC(=O)c1ccc(I)cc1)N/C(=N/C#N)Nc1ccc(C(F)(F)F)nc1` (stereo unspecified) had an EC50 of 7760 nM.

On to `CC(Cl)(Cl)C(NC(=O)c1cccc(F)c1)N/C(=N/C#N)Nc1ccc(Cl)nc1` (stereo unspecified), for which a half-maximal response (EC50) required 5370 nM.

As for `CC(Cl)(Cl)C(NC(=O)c1ccc(F)cc1)N/C(=N/C#N)Nc1ccc(Cl)nc1` (stereo unspecified), a half-maximal effect (EC50) was put at 1290 nM.

`CC(Cl)(Cl)C(NC(=O)c1ccc(F)cc1)N/C(=N/C#N)Nc1cncc(Br)c1` (stereo unspecified) showed a half-maximal effective concentration (EC50) of 955 nM.

`Cc1cncc(N/C(=N\C#N)NC(NC(=O)c2ccc(Cl)cc2)C(C)(Cl)Cl)c1` (stereo unspecified) came in with a 50% effective concentration (EC50) of 759 nM.

As for `CC(Cl)(Cl)C(NC(=O)c1cccs1)N/C(=N/C#N)Nc1ccc(C(F)(F)F)nc1` (stereo unspecified), it took 1740 nM to reach a half-maximal effect (EC50).

As to `CC(Cl)(Cl)C(NC(=O)c1cccc(Cl)c1)N/C(=N/C#N)Nc1ccc(C(F)(F)F)nc1` (stereo unspecified), the EC50 was 6760 nM.

`CC(Cl)(Cl)C(NC(=O)c1ccc(I)cc1)N/C(=N/C#N)Nc1ccc(Cl)nc1` (stereo unspecified) gave a concentration for a half-maximal effect (EC50) of 891 nM.

Molecule `CC(Cl)(Cl)C(NC(=O)c1cccs1)N/C(=N/C#N)Nc1ccc(Cl)nc1` (stereo unspecified) gave an EC50 of 2750 nM.

For `CC(Cl)(Cl)C(NC(=O)c1ccccc1)N/C(=N/C#N)Nc1ccc(Cl)nc1` (stereo unspecified), the EC50 was 2040 nM.

In turn, `CC(Cl)(Cl)C(NC(=O)c1ccc(Cl)cc1)N/C(=N/C#N)Nc1ccc(F)nc1` (stereo unspecified) came in with an EC50 of 1510 nM.

For `CC(Cl)(Cl)C(NC(=O)c1ccc(C(F)(F)F)cc1)N/C(=N/C#N)Nc1ccc(Cl)nc1` (stereo unspecified), the EC50 amounted to 5010 nM.

Molecule `CC(Cl)(Cl)C(NC(=O)c1ccc(F)cc1)N/C(=N/C#N)Nc1ccc(C(F)(F)F)nc1` (stereo unspecified) displayed a half-maximal effective concentration (EC50) of 2090 nM. Against the preceding molecule, the EC50 is about 2.4-fold lower.

On to `Cc1ccc(C(=O)NC(N/C(=N/C#N)Nc2ccc(F)nc2)C(C)(Cl)Cl)cc1` (stereo unspecified), for which the EC50 came to 4270 nM.

As for `CC(Cl)(Cl)C(NC(=O)c1ccc(C(F)(F)F)cc1)N/C(=N/C#N)Nc1ccc(C(F)(F)F)nc1` (stereo unspecified), the midpoint of the response, the EC50, lay at 26900 nM. Compared with the last molecule, the EC50 is about 6.3-fold higher.

For the molecule `COc1ncccc1NC(=NC#N)NC(NC(=O)c1ccc(Cl)cc1)C(C)(Cl)Cl` (stereo unspecified), a half-maximal response (EC50) required 9770 nM.

`CC(Cl)(Cl)C(NC(=O)c1cc(F)cc(F)c1)N/C(=N/C#N)Nc1ccc(F)nc1` (stereo unspecified) displayed a half-maximal effective concentration (EC50) of 4270 nM.

Regarding `CC(Cl)(Cl)C(NC(=O)c1cc(Cl)cc(Cl)c1)N/C(=N/C#N)Nc1cncc(Br)c1` (stereo unspecified), a half-maximal effect (EC50) was put at 2630 nM.

Molecule `CC(Cl)(Cl)C(NC(=O)c1cc(Cl)cc(Cl)c1)N/C(=N/C#N)Nc1ccc(C(F)(F)F)nc1` (stereo unspecified) came in with an EC50 of 3720 nM.

In turn, `Cc1cccc(C(=O)NC(N/C(=N/C#N)Nc2ccc(F)nc2)C(C)(Cl)Cl)c1` (stereo unspecified) gave a half-maximal effective concentration (EC50) of 4270 nM. The EC50 values of the last two molecules are within 1.5-fold of each other.

Turning to `CC(Cl)(Cl)C(NC(=O)c1ccc(Cl)cc1)NC(=NC#N)Nc1cccnc1Cl` (stereo unspecified), the concentration giving a half-maximal response (EC50) amounted to 6030 nM. This EC50 and that of the molecule before are within 1.5-fold of each other.

Take `CC(Cl)(Cl)[C@@H](NC(=O)c1ccc(Cl)cc1)N/C(=N/C#N)Nc1ccc(Cl)nc1`: a half-maximal response (EC50) required 1070 nM.

The molecule `CC(Cl)(Cl)C(NC(=O)c1ccc(OC(F)(F)F)cc1)N/C(=N/C#N)Nc1ccc(F)nc1` (stereo unspecified) yielded a concentration for a half-maximal effect (EC50) of 8910 nM.

The molecule `Cc1ccc(C(=O)NC(N/C(=N/C#N)Nc2cncc(Br)c2)C(C)(Cl)Cl)cc1` (stereo unspecified) had an EC50 of 1320 nM.

Consider `CC(Cl)(Cl)C(NC(=O)c1ccc(F)cc1)N/C(=N/C#N)Nc1ccc(F)nc1` (stereo unspecified), for which the midpoint of the response, the EC50, lay at 11700 nM.

The values are drawn from BindingDB's records for doi:10.1021/jm7010194 (Abbott Laboratories, 2007).
